Each structure is given as a SMILES string. Calls of active or inactive are those of the source. No cut-off for these calls is given here.

A short description of data set [1]: Metabolic stability in CD-1 mouse liver microsomes assessed as microsomal intrinsic clearance at 1 micromol/L measured upto 60 mins in presence of NADPH by LC-MS/MS analysis. Type of data set: ADME, Microsome. The settings on record: dose 1 µmol/L, read-out: CLH. Background: Liver microsomes are a subcellular fraction often used to study metabolism.
Data set [2] deals with Mus musculus. Kind of data set: Antifibrotic activity in CDAHFD induced non-alcoholic steatohepatitis C57BL/6N mouse model assessed as downregulation of TGF-beta1 mRNA expression at 200 mg/kg,po qd administration for 4 weeks by qRT-PCR analysis. The format is functional, organism-based.
For data set [3], the system named is Rattus norvegicus. Briefly: Hepatoprotective activity in bile duct ligation induced Sprague-Dawley rat liver injury model assessed as decrease in total bilirubin level at 200 mg/kg,po qd administration for 14 days. The format is functional, organism-based. The settings on record: time 14.0 day.
A short description of data set [4]: Acute toxicity in Kunming mouse assessed as effect on blood urea nitrogen level at 250 to 1000 mg/kg,po administration. The format is organism-based. The settings on record: in vivo, dose 250-1000 mg/kg.
The nature of data set [5]: Metabolic stability in human liver microsomes assessed as intrinsic clearance at 1 micromol/L measured upto 60 mins in presence of NADPH by LC-MS/MS analysis. The format is ADME, Microsome. Particulars: 1 h, 1 µM, dose 1 µmol/L.

For `COc1cc2c(cc1OC)-c1cc3ccc(OC)c(OCc4cccc(C)c4)c3c[n+]1CC2.[Br-]`, the microsomal CLint at 1 µM in data set [1] amounted to 188 µL/min/mg. Besides, the result in data set [2] and in data set [3] was Active. The Activity entry in data set [4] was “Non-Toxic”. Further, the CLint,scaled in data set [5] turned out to be 1.4 L/h/kg.

The values above are taken from ChEMBL document CHEMBL5385846, “Discovery and development of palmatine analogues as anti-NASH agents by activating farnesoid X receptor (FXR)” (Eur J Med Chem, 2023).
